Measured values published in ChEMBL document CHEMBL1201862, “PubChem BioAssay data set” (2004).
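Protocol summary: plate cells (96-well), add compound at 5 concentrations, incubate 48 h, interpolate endpoints linearly. Here, GI50 denotes the concentration required for 50% inhibition of growth.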 Active and inactive are the calls of the source. No stated cut-off is given here; in the data, active = GI50 up to about 1.1 µM and inactive = higher.

Key:
Test in all cases: growth of human tumour cells (NCI), 48 h
A498 = test system: A498
A549 = test system: A549
COLO 205 = test system: COLO 205
DU-145 = test system: DU-145
HCC 2998 = test system: HCC 2998
HOP-62 = test system: HOP-62
HT-29 = test system: HT-29
Hs-578T = test system: Hs-578T
PC-3 = test system: PC-3
RPMI-8226 = test system: RPMI-8226
RXF 393 = test system: RXF 393
SF-268 = test system: SF-268
SF-295 = test system: SF-295
SK-OV-3 = test system: SK-OV-3
SN12C = test system: SN12C
SNB-19 = test system: SNB-19
SNB-75 = test system: SNB-75
SW-620 = test system: SW-620
UACC-62 = test system: UACC-62
UO-31 = test system: UO-31

Measured: GI50

COc1ccc2cc(C(=O)NCCCNC(=O)c3ccc4cc(OC)ccc4c3)ccc2c1
inactive: A498 44.8 µM | A549 > 100 µM | COLO 205 > 100 µM | DU-145 > 100 µM | HCC 2998 > 100 µM | HOP-62 14.7 µM | HT-29 > 100 µM | Hs-578T 34.2 µM | PC-3 > 100 µM | RPMI-8226 > 100 µM | RXF 393 15.8 µM | SF-268 23.9 µM | SF-295 22.4 µM | SK-OV-3 31.5 µM | SN12C > 49.9 µM | SNB-19 17.2 µM | SNB-75 17.8 µM | SW-620 > 100 µM | UACC-62 > 100 µM | UO-31 > 75.7 µM

C[C@]12CCC(=O)C=C1C[C@@H](O)[C@@H]1[C@@H]2CC[C@@]2(C)[C@H]1CC[C@]2(C)O
inactive: A498 > 100 µM | A549 > 100 µM | COLO 205 > 100 µM | DU-145 > 100 µM | HCC 2998 > 100 µM | HOP-62 > 100 µM | HT-29 > 100 µM | Hs-578T > 100 µM | PC-3 > 100 µM | RPMI-8226 > 100 µM | RXF 393 > 100 µM | SF-268 > 100 µM | SF-295 > 100 µM | SK-OV-3 > 100 µM | SN12C > 100 µM | SNB-19 > 100 µM | SNB-75 > 100 µM | SW-620 > 100 µM | UACC-62 > 100 µM | UO-31 > 100 µM

COc1ccc([C@]23CCN4COC[C@@H]([C@H]42)C2(CC3)OCC(C)(C)CO2)cc1OC
inactive: A498 > 100 µM | A549 > 100 µM | COLO 205 > 100 µM | DU-145 > 100 µM | HCC 2998 > 100 µM | HOP-62 > 100 µM | HT-29 89.7 µM | Hs-578T > 100 µM | PC-3 > 100 µM | RPMI-8226 > 100 µM | RXF 393 > 100 µM | SF-268 > 100 µM | SF-295 > 100 µM | SK-OV-3 > 100 µM | SN12C > 100 µM | SNB-19 > 100 µM | SNB-75 53.3 µM | SW-620 > 100 µM | UACC-62 > 100 µM | UO-31 > 100 µM

O=[N+]([O-])CC(SCc1ccccc1)c1ccc2c(c1)OCO2 (stereo not given)
inactive: A498 6.98 µM | A549 7.67 µM | COLO 205 8.24 µM | DU-145 14.5 µM | HCC 2998 5.57 µM | HOP-62 17.4 µM | HT-29 2.61 µM | Hs-578T 6.31 µM | PC-3 16.8 µM | RPMI-8226 1.57 µM | RXF 393 1.82 µM | SF-268 9.4 µM | SF-295 7.76 µM | SK-OV-3 15.1 µM | SN12C 11.7 µM | SNB-19 14 µM | SNB-75 15.1 µM | SW-620 3.81 µM | UACC-62 9.89 µM | UO-31 8.26 µM

C=CCCCCNC(=O)C[C@@H]1C2=C(CC[C@H]1O[Si](C)(C)C(C)(C)C)N1C(=O)CCC/C=C\C1C2 (stereo not given in full)
inactive: A498 15.2 µM | A549 13.1 µM | COLO 205 13.6 µM | DU-145 15 µM | HCC 2998 10.4 µM | HOP-62 17.9 µM | HT-29 12.3 µM | Hs-578T 16.1 µM | PC-3 12 µM | RPMI-8226 5.71 µM | RXF 393 10.8 µM | SF-268 15.5 µM | SF-295 14.9 µM | SK-OV-3 16.6 µM | SN12C 15.4 µM | SNB-19 14.4 µM | SNB-75 16.4 µM | SW-620 13.6 µM | UACC-62 12.9 µM | UO-31 14.2 µM
